In the assay the target is T1, GR (Homo sapiens, UniProt P04150).
T1 construct: expressed in transfected cells; host or cells: CV-1 (African green monkey kidney)
T1 sequence (P04150 1-777): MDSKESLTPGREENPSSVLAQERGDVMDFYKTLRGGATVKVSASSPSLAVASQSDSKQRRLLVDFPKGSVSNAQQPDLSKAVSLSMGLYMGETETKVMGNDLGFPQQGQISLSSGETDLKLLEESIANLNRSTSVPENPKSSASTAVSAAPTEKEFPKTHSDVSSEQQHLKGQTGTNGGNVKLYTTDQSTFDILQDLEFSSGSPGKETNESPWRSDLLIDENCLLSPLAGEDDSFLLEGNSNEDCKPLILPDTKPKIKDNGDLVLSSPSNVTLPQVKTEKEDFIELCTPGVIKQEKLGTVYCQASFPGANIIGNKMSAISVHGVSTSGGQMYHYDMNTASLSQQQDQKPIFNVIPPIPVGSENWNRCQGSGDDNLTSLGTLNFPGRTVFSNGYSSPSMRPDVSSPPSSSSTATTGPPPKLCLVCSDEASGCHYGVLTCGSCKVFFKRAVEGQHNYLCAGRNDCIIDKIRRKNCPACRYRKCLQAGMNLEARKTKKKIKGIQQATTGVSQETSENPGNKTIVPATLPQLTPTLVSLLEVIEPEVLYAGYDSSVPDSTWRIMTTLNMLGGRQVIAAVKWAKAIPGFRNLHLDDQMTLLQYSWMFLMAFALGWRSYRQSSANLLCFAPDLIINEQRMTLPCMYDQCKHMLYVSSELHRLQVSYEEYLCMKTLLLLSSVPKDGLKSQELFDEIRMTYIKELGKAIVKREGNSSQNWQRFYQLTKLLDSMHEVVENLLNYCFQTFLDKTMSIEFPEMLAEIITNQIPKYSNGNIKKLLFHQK
The experiment in a line: Reporter gene assay, ERRγ3 coexisted with GR, pGRE-luc in CV-1 cells. The format is cell-based. To be noted: 10^−5 M dexamethasone. The procedure: Transfection was performed as follows: CV-1 cells were resuspended in DMEM supplemented with 10% fetal bovine serum, 2000 U/l of penicillin G, and 100 mg/l of streptomycin to a concentration of 2×10^5 cells/2.5 ml. This was then seeded to a 6-well plate at 2.5 ml per well, and incubated for 18-24 hours in a CO2 incubator at 37° C. and 5% CO2. 1 μg of each of the expression plasmids for the transcription factors, the luciferase reporter plasmid, and another luciferase reporter plasmid used for normalization of the measured values (pRL-TK), were dissolved in Opti-MEM (Gibco BRL), to a total of 150 μl. 7 μl of the transfection reagent LipofectAMINE 2000 (Gibco BRL) was diluted in 143 μl of Opti-MEM, and this was added to the mixture drop by drop while stirring. The mixture was incubated for 20 minutes. […] Luciferase activity was measured using the Dual-Luciferase™ Reporter Assay System (Promega). […] The protocol for measurement was as follows: 50 μl of Luciferase Assay Reagent II was added to each well, stirred for 0.3 seconds, and measured for one second. 50 μl of Stop&Glo™ Reagent was then added, stirred for 0.3 seconds, and measured for one second. The measured values for firefly luciferase activity were corrected by dividing by the value for the Renilla luciferase activity, the internal control. Average values and standard errors were calculated from triplicate samples. […]
For orientation: Reporter assays use an easily measured gene product as a stand-in for the process of interest.

As to 4-hydroxytamoxifen [reference compound], the “effect of 4-hydroxytamoxifen on the inhibitory function of ERRγ3 on GR” value (10^−5 M 4-hydroxytamoxifen, FIG. 25B) is given as “reduced ERRγ3's inhibitory function”.

B1: ERRγ3: novel ERRγ isoform, nuclear receptor protein of 396 amino acids (SEQ ID NO: 2) lacking part of the DNA binding domain (protein, listed as Homo sapiens)
chain: MSNKDRHIDSSCSSFIKTEPSSPASLTDSVNHHSPGGSSDASGSYSSTMNGHQNGLDSPPLYPSAPILGGSGPVRKLYDDCSSTIVEDPQTKCEYMLNSMPKRLCLVCGDIASGYHYGVASCEACKAFFKRTIQGVRLDRVRGGRQKYKRRIDAENSPYLNPQLAQPAKKPYNKIVSHLLVAEPEKIYAMPDPTVPDSDIKALTTLCDLADRELVVIIGWAKHIPGFSTLSLADQMSLLQSAWMEILILGVVYRSLSFEDELVYADDYIMDEDQSKLAGLLDLNNAILQLVKKYKSMKLEKEEFVTLKAIALANSDSMHIEDVEAVQKLQDVLHEALQDYEAGQHMEDPRRAGKMLMTLPLLRQTSTKAVQHFYNIKLEGKVPMHKLFLEMLEAKV
For B1, under “FIG. 25”, the “effect of ERRγ3 on the transcriptional stimulation activity of GR” value was “inhibited GR's transcriptional stimulation activity”.
